The results in this text go back to patent US20180352816A1, “COMPOSITION FOR CROP CARE AND PROTECTION” (ALPHA BIOPESTICIDES LIMITED, priority 2015, published 2018).

Where two headings read alike, the source gives them in different places.

Assay [1] has as its system E. amylovora. The assay is described as follows: Broth microdilution MIC and FIC index (CLSI protocol).
Method: The antimicrobial activity of the crop defence compositions prepared in above Examples was evaluated through in vitro test of antimicrobial susceptibility with broth microdilution method (CLSI protocol—Clinical and Laboratory Standards Institute).
The Minimum Inhibitory Concentrations (MICs) were determined in multiwell plates.
The determination of synergy was evaluated by using standard protocol and evaluating in particular the FIC index.
The value of FIC index was determined through the following formula:
Assay [2] concerns P. infestans. The experiment in a line: microbe, parasite or virus in culture. The assay is classed as cell-based.
Assay [3] has as its system B. cinerea. The assay is described as follows: Broth microdilution MIC and FIC index (CLSI protocol). The assay is classed as cell-based.
Assay [4] relates to Z. tritici. The assay is described as above. The assay is classed as cell-based.
Assay [5] has as its system P. syringae. The description is as above. The assay is classed as cell-based. The following applies: triplicate. An excerpt:
FIC index>1: no synergistic effect.

The mark [6] stands for this setting: E. amylovora, broth microdilution, triplicate.

As to `[Cu+2].[OH-].[OH-]` [Copper hydroxide, copper hydroxide], the MIC in assay [1] (setting [6]) turned out to be 375 µg/mL.

In the case of `[Cl-].[Cu+2].[Cu+2].[OH-].[OH-].[OH-]` [Copper oxychloride, copper oxychloride], the MIC in assay [2] (P. infestans, broth microdilution, triplicate) was found to be 3600 µg/mL.

As for `CCCCCCCC/C=C\CCCCCCCC(=O)[O-].[K+]` [Potassium oleate], the MIC in assay [3] (Botrytis cinerea) came to 3770 µg/mL; in assay [2] (Phytophthora infestans) it was 220 µg/mL; in assay [4] (Zymoseptoria tritici), 15100 µg/mL; in assay [1] (Erwinia amylovora) it was 7.3 µg/mL; in assay [5] (Pseudomonas syringae, read-out: MIC) it was 30 µg/mL.

As for copper anthranilate, the MIC in assay [1] (setting [6]) came to 290 µg/mL; in assay [5], 590 µg/mL.

Take copper salicylate: the MIC in assay [3] (B. cinerea, broth microdilution, triplicate) amounted to 60 µg/mL; in assay [4] (Z. tritici, broth microdilution, triplicate), 235 µg/mL.
